Nine compounds from US8686045B2 (priority 2005, dated 2014) can be followed below.

As a reminder, the pEC50 is the EC50 on a negative log10 scale, so that one unit is a factor of ten.

pEC50: −log10 of the molar value. Entries after “also recorded” stand apart in the source; their conditions may differ. Where a SMILES comes first, the peptide text is derived from it. [ ]: non-standard residue; d: D form. pGlu = O=C1CC[CH](C(=O)O)N1

Data set [1] deals with E16 mouse hippocampal neurons. As to the kind of experiment: Hippocampal neuron survival (morphology plus MTT conversion, 48 h). The format is cell-based. The note with it: for pEC50 / Emax: Mus musculus, Hippocampal neuron, 48 h; for pEC50: read-out: EC50 of neuron survival dose-response; for Emax: read-out: intrinsic activity. The protocol:
FIGS. 3A-3E are a series of neuron survival dose response curves of BDNF (FIG. 3A), Compound 1 (also referred to as BD2-1, FIG. 3B) Compound 2 (also referred to as BD2-2, FIG. 3C), Compound 3 (also referred to as BD2-3, FIG. 3D), and Compound 4 (also referred to as BD2-4, FIG. 3E) using Mouse E16 hippocampal neurons. Survival was determined as the total number of cells in each well that were both morphologically intact and filled with blue formazan MTT conversion product (Longo, F. M., Manthorpe, M. Xie, Y. M., and Varon, S. (1997) J Neurosci Res. 48, 1-17). Counts were normalized to survival achieved with 25 ng/mL BDNF. Survival was assessed at 48 hrs.
Hippocampal neurons were prepared from E16-17 mouse embryos as previously described (Yang, T. et al. (2003) J Neurosci 23, 3353-3363). Low density cultures were initiated in poly-L-lysine coated A/2 plates by adding 25 μl of cell suspension (2000 neurons/well; 12,500 cells/cm^2), 25 μl of DMEM containing 10% FBS, and different concentrations of recombinant BDNF, NGF, or TrkB-binding compounds to each well.
After 48 hours in culture, cell survival was assessed as previously described (Longo, F. M., Manthorpe, M., Xie, Y. M., Varon, S. (1997) J Neurosci Res 48, 1-17) using a combination of standard morphological criteria along with visual determination of whether a given cell converted MTT to its blue formazan product. Briefly, the number of surviving neurons was determined by counting the total number of cells in each well that were both morphologically intact and filed with blue product (Longo F. M., Manthorpe. M., Xie, Y. M. Varon, S. (1997) J Neurosci Res 48, 1-17). For each neurotrophin or compound concentration, duplicate wells were counted and the resulting values averaged. […] Counts were normalized to survival achieved with 25 ng/ml BDNF or to baseline survival. Fitting of dose-responsive curves was performed with SIGMAPLOT™ obtained from SYSTAT Software Inc. (Richmond, Calif., United States of America).
In order to understand the mechanisms of action of the BDNF loop 2 mimetics and to test the conjecture that they work via the targeted receptor, TrkB, the dose-dependent relationships of the survival-promoting activities of the mimetics was compared to BDNF using embryonic hippocampal neurons in culture conditions in which BDNF promotes neural survival. In the cultures, neurotrophic activity was mediated by BDNF principally through TrkB and p75^NTR, as they express little TrkA (Brann, A. B., et al. (1999) J Neurosci 19, 8199-8206; Bui, N. T., et al. (2002) J Neurochem 81, 594-605).

For a further data set, the system named is DARP32-positive neurons. As to the kind of experiment: Quinolinic acid-induced death, DARP32-positive neurons only. The format is cell-based, mouse. The method, then:
FIG. 6C is a bar graph of the results of a study similar to that described for FIG. 6B only using Darp32-positive neurons.
A study similar to the one shown in FIG. 6B was conducted in which only DARP32-positive neurons were assessed. DARP32-positive neurons represent the population within the striatum that are particularly vulnerable in HD.

Data set [2] deals with E16 mouse hippocampal neurons. As to the kind of experiment: Hippocampal neuron survival (morphology plus MTT conversion, 48 h). The format is cell-based. The note with it: in the presence of a maximally effective BDNF concentration (50 ng/mL).
Data set [3] has as its system E16-17 hippocampal neurons. The data set can be described thus: Aβ oligomer-induced neuronal degeneration (Alzheimer's disease model). The data set is classed as cell-based, mouse. The protocol:
Neuronal cell survival in culture medium (CM) and with the addition of 10 μM AβScrambled oligomer are shown in the two bars on the left-hand side of the graph […]. Cells were also treated with 10 μM Aβ1-42 alone or in combination with NGF (100 ng/mL), NGF mimetic LM11A-31 (100 nM), a combination of NGF and LM11A-31, Compound 4 (BD2-4, 500 nM), Compound 24 (BD2-24, 500 nM), or either 20 or 100 ng/mL BDNF, as indicated under each bar. […] Mean+SE are shown and ***p<0.001 for survival above CM baseline.
The ability of the BDNF mimetics to prevent Aβ-induced neuronal degeneration was tested as a model of the compounds' ability to treat Alzheimer's disease. E16-17 hippocampal neurons were matured for 6 days and then incubated for 3 days with the indicated combinations of Aβ oligomer preparations (Dahigren, K. N., et al. (2002) J Biol Chem 277, 32046-32053), neurotrophins and neurotrophin mimetics. Following the three day incubation, neuronal survival was assessed using standard morphological criteria (Massa, S. M., et al. (2006) J Neurosci 26, 5288-5300.).

The target of the next data set is T1, TrkC (Homo sapiens, UniProt Q16288).
T1 construct: expressed in transfected cells; host or cells: NIH3T3
As to the kind of experiment: Trk phosphorylation at Y490, Western blot, NIH3T3 cells expressing TrkC. The format is cell-based. The method, then:
FIG. 5B is a digital composite image of Western blots monitoring TrkC activation as indicated by promotion of Trk phosphorylation at Y490 in NIH3T3 cells expressing TrkC. […] CM represents culture medium.
(§1) Western blots were performed as described previously (Yang, T. et al. (2003) J Neurosci 23, 3353-3363). Western blot signals were detected using the ECL Chemiluminescence System obtained by Amersham (Piscataway, N.J., United States of America) (Yang, T. et al. (2003) J Neurosci 23, 3353-3363). To detect the presence of anti-Trk antibodies, blots were probed with horseradish peroxidase-linked goat anti-rabbit IgG obtained from Amersham/Pharmacia Biotech (Piscataway, N.J., United States of America). Signals were detected by the ECL chemiluminescence system obtained from Amersham Biosciences (Piscataway, N.J., United States of America). To control for variation in protein loading, the blot was stripped and reprobed with β-actin monoclonal antibody obtained from Sigma (St. Louis, Mo., United States of America).
(§2) In order to assess the interactions of the BDNF loop 2 mimetic compounds with TrkB receptors, the ability of Compound 4 to activate TrkA, TrkB, and TrkC was compared in a series of Western blotting experiments.
In FIG. 5B, NIH3T3 cells expressing TrkC were used. The bottom panel indicates the total amount of TrkC present by probing with anti-TrkC antibodies.

The subject of data set [4] is human SH-SY5Y neuroblastoma cells. The source says:
Exposure of SH-SY5Y cells to 1-methyl-4-phenylpyridinium (MPP^+) with resulting cell death is a well-characterized model of Parkinson's disease (PD). […] BDNF has also been previously shown to protect dopaminergic neurons. Further, MPP^+ causes a PD-like condition in primates.
For the Parkinson's disease model assays, human SH-SY5Y cells were used after terminal differentiation into a dopaminergic phenotype (Presgraves. S. P., et al. (2004) Exp Neruol 190, 157-170). Human SH-SY5Y neuroblastoma cells were propagated to confluence in Dulbecco's Modified Eagle's media (DMEM) supplemented with 10% fetal calf serum, 100 μg/mL penicillin, 100 μg/mL streptomycin, 0.25 μg/mL amphotericin B, and […] non-essential amino acids and then sub-cultured for differentiation. For differentiation, the cells were incubated in same media containing 10 μM retinoic acid for 3 days; then the media was removed and replaced with media containing 160 nM of the phorbol ester 12-O-tetradecanoyl-phorbol-13-acetate (TPA) for 3 days of differentiation. The cells were then administered a range dose of BD2-4 or BDNF (1×10^−12 M to […]) in DMEM for 30 mins for three days prior to addition of 100 μM MPP^+. Following transfer of MPP^+ to the media, sister cultures were tested at 6, 12, 24, and 48 hrs for the cytotoxicity of MPP^+ as measured by the MTT and lactate dehydrogenase method (LDH) assays which accurately measure different aspects of cell death. In addition, the neuroprotective effects of a fixed dose of BD2-4 and BDNF on MPP^+ induced cell death were tested for in the presence and absence of TrkB inhibitor K252a (200 nM).

The next data set concerns the target T2, TrkB (Homo sapiens, UniProt Q16620).
T2 construct: expressed in transfected cells; host or cells: NIH3T3
The data set can be described thus: Trk phosphorylation at Y490, Western blot, NIH3T3 cells expressing TrkB. The data set is classed as cell-based. The protocol:
(§3) CM represents culture medium.
as §1, §2
(§4) In the bottom two panels of FIG. 5A, NIH3T3 cells expressing TrkA were used.

The next data set concerns the target T3, TrkA (Homo sapiens, UniProt P04629).
T3 construct: expressed in transfected cells; host or cells: NIH3T3
As to the kind of experiment: Trk phosphorylation at Y490, Western blot, NIH3T3 cells expressing TrkA. The data set is classed as cell-based. The protocol: as §3, §1, §2, §4

Data set [5] concerns mouse E16 striatal neurons.
Source text: Bars indicate mean±s.e.m.
CM represents culture medium and QUIN represents quinolinic acid. Bars indicate mean±s.e.m and *** indicates p<0.005 student t test.
The K252a inhibitor is a well-characterized inhibitor of TrkB receptor activation.

T1 sequence (Q16288 32-839, species assumed): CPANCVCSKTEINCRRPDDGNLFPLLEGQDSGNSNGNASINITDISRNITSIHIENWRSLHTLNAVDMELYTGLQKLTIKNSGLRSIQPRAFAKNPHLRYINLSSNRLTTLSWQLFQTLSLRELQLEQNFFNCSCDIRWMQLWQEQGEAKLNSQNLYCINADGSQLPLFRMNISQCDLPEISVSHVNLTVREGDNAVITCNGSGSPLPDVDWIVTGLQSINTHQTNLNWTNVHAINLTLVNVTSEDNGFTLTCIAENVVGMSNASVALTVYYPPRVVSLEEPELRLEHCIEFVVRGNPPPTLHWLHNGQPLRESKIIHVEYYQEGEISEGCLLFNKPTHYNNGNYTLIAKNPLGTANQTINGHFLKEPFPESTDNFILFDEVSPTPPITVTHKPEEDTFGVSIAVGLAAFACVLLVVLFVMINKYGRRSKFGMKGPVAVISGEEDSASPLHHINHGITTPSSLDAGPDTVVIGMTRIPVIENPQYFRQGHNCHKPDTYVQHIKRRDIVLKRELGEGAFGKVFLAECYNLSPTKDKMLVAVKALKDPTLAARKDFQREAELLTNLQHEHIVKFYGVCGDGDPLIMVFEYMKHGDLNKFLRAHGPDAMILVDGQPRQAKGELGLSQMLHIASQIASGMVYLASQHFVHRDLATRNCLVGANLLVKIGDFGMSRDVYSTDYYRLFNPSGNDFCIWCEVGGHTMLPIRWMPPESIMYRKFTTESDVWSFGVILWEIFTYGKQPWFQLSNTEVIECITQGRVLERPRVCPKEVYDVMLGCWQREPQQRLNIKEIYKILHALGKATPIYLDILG
T3 sequence (P04629 33-796, species assumed): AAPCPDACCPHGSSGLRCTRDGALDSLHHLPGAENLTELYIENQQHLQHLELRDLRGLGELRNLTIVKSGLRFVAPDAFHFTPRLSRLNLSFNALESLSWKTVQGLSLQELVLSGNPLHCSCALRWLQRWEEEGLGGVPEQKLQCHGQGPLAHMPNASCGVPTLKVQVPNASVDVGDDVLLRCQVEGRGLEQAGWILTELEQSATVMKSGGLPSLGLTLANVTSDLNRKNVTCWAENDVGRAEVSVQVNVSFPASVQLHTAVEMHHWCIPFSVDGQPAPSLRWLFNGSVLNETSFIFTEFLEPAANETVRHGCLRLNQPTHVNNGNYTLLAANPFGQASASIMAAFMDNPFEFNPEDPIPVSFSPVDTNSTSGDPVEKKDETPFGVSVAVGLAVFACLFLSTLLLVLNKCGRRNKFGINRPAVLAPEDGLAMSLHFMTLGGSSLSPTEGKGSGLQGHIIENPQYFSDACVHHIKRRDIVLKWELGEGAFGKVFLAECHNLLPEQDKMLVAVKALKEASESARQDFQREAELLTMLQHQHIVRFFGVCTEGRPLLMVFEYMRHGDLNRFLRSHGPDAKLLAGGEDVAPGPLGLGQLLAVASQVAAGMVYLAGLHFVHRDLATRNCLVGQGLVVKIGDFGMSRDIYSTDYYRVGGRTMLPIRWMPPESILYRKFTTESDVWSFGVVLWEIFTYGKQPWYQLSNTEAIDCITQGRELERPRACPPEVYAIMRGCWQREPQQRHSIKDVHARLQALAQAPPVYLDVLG
T2 sequence (Q16620 32-822, species assumed): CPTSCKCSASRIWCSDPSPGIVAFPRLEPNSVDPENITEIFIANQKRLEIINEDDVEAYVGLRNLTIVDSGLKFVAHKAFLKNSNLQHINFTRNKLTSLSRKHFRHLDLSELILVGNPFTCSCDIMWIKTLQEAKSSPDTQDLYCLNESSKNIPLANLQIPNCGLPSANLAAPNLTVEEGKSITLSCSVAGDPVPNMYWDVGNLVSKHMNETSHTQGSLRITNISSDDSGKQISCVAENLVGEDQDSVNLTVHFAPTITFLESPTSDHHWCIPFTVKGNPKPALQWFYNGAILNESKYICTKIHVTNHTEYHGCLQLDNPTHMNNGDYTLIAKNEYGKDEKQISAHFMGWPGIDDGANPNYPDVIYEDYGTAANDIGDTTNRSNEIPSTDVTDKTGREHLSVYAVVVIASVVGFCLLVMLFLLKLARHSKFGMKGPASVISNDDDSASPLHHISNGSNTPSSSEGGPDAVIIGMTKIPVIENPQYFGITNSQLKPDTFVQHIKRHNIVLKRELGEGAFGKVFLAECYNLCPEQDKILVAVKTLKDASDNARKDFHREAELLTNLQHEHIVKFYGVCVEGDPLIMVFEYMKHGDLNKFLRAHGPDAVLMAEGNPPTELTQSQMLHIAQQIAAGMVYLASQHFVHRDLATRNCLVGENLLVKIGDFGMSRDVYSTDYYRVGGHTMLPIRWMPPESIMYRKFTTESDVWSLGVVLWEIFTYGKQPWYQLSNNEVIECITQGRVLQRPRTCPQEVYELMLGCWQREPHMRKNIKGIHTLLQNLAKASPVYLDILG

Turning to `COC(=O)C(Cc1c[nH]c2ccccc12)NC(=O)C(Cc1c[nH]cn1)NC(=O)C1CCC(=O)N1` (stereo not drawn) [Compound 1] ([pGlu]-His-Trp-OMe; configuration not given here), in [1], the pEC50 is 9.00 to 10.00 and the Emax is 50 to 200%.

In the case of `NC(=O)NN=C1c2cc(S(=O)(=O)NCCO)ccc2-c2ccc(S(=O)(=O)NCCO)cc21` [Compound 2], in [1], the pEC50 is 9.00 to 10.00 and the Emax fell in the range of 50 to 200%.

`CC(=O)Nc1ccc(/C=C(\C#N)c2nn(CCO)c(N)c2C#N)cc1` [Compound 3]: in data set [1], the negative-log EC50 (pEC50) was 9.00 to 10.00 and the Emax lay within 50 to 200%.

Consider `O=C(NCCO)c1cc(C(=O)NCCO)cc(C(=O)NCCO)c1` [Compound 4], for which, in the data set on DARP32-positive neurons (quinolinic acid-induced death), the “protection of DARP32-positive neurons” value is “protects DARP32-positive neurons with an efficacy similar to that of BDNF”. Moreover, the “effect on BDNF activity (partial agonism)” value in data set [2] is recorded as “partial agonist of BDNF; also recorded: causes an inhibition of BDNF activity”. The “blocking of Aβ-induced degeneration” value in data set [3] is recorded as “as effective as BDNF in blocking Aβ-induced degeneration”. In addition, the “TrkC activation (Trk phosphorylation at Y490)” value at TrkC is “do not activate TrkC”. The “block of death-inducing activity of MPP+” value in data set [4] (MPP+ 100 μM) is listed as “significantly blocked to a similar extent”. Also, the “TrkB activation (Trk phosphorylation at Y490)” value on TrkB is listed as “activate TrkB”. Also, the “TrkA activation (Trk phosphorylation at Y490)” value on TrkA is on record as “not TrkA; also recorded: do not”. Moreover, the “prevention of death of hippocampal neurons / neurotrophic effect” value in data set [1] (E16 hippocampal neurons) is “neurotrophic effects similar to that of BDNF; also recorded: prevents the death of E16 hippocampal neurons”. In addition, in data set [1], the negative logarithm of the EC50 (pEC50) was 9.00 to 10.00 and the Emax is 50 to 200%.

Consider `COc1ccc(-c2csc(N/N=C/c3ccc(O)cc3O)n2)cc1` [Compound 24], for which the “blocking of Aβ-induced degeneration” value in [3] is “as effective as BDNF in blocking Aβ-induced degeneration”.

As for `COC(=O)[C@@]1(O)C[C@H]2O[C@]1(C)n1c3ccccc3c3c4c(c5c6ccccc6n2c5c31)C(=O)NC4` [Compound K252a], the “effect of K252a on prevention of cell death by BDNF and BD2-4” value in the data set with DARP32-positive neurons (DARP32-positive neurons) was “decreased the ability of BDNF and BD2-4 to prevent cell death”. Moreover, the “effect on cell survival, inhibitor alone” value in [4] (K252a (200 nM) versus culture medium alone) is on record as “small effect on lowering cell survival”. Further, the “effect of K252a on quinolinic acid-induced death” value in data set [5] (K252a without BDNF or BD2-4) is reported as “no effect on quinolinic acid-induced death”. Moreover, in data set [5] (quinolinic acid-treated striatal neurons), the “effect of K252a on prevention of death by BDNF and BD2-4” value was “block the ability of BDNF and BD2-4 to prevent death”.

In the case of `CC[C@H](C)[C@H](N)C(=O)NCCN1CCOCC1` [LM11A-31, reference compound], in [3], the “blocking of Aβ-induced degeneration” value was “blocked Aβ-induced degeneration”. Moreover, the “blocking activity in combination with NGF” value in [3] (LM11A-31 100 nM plus NGF 100 ng/mL, 10 μM Aβ1-42) is on record as “blocked by NGF”.

For the compound `C[n+]1ccc(-c2ccccc2)cc1` [MPP^+, 1-methyl-4-phenylpyridinium], the “cell death, toxin alone” value in data set [4] (MPP+ 100 μM) is given as “promotes death of essentially all cells”.

For the compound `O=C(O)c1cccnc1C(=O)O` [quinolinic acid], in data set [5] (quinolinic acid at 7.5 mM versus culture medium alone), the death of neurons result is listed as “approximately 50%”.
